Here are results for 28 compounds from patent US20060276498A1 (Wyeth, priority 2005, published 2006).

In general, IC50 refers to the concentration at which inhibition is half-maximal. A low value points to greater potency in that assay.

SMILES strings stand for the structures.

For one test, the target named is T1, human Cot/Tpl2 kinase (Homo sapiens, UniProt P41279).
T1 construct: human Cot/Tpl2 kinase construct encoding residues 30-398; 6His (N); made in house; host or cells: Sf9 insect cells (baculovirus system, BD Biosciences)
T1 sequence (P41279 30-398): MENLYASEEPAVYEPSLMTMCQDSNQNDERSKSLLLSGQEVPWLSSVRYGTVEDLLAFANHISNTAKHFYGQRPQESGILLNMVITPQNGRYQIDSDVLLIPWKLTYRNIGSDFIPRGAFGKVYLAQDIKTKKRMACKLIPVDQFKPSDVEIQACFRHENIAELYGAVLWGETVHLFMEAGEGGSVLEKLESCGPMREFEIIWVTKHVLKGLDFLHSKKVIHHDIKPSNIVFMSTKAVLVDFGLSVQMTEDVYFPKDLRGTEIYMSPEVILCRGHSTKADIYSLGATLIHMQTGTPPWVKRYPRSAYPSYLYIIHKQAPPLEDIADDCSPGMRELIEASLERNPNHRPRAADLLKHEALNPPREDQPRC
The experiment in a line: Tpl2/Cot kinase assay, GST-MEK1 phosphorylation detected by ELISA (DELFIA Eu). The test is classed as biochemical. Conditions: Table 2; additional representative compounds. Background: ELISA stands for enzyme-linked immunosorbent assay.
Take `CC(C)(Nc1cc2c(Nc3ccc(F)c(Cl)c3)c(C#N)cnc2cn1)c1ccccc1` [Example 118, 4-[(3-chloro-4-fluorophenyl)amino]-6-[(1-methyl-1-phenylethyl)amino]-1,7-naphthyridine-3-carbonitrile]: the half-inhibitory concentration (IC50) came to 1200 nM.

Turning to `N#Cc1cnc2cnc(NCc3ccncc3)cc2c1Nc1ccc(F)c(Cl)c1` [Example 119, 4-(3-chloro-4-fluorophenylamino)-6-(pyridin-4-ylmethylamino)-1,7-naphthyridine-3-carbonitrile], the half-inhibitory concentration (IC50) is 31 nM.

For `N#Cc1cnc2cnc(NCCc3ccc(S(N)(=O)=O)cc3)cc2c1Nc1ccc(F)c(Cl)c1` [Example 120, 4-(2-(4-(3-chloro-4-fluorophenylamino)-3-cyano-1,7-naphthyridin-6-ylamino)ethyl)benzenesulfonamide], 230 nM corresponded to half-maximal inhibition (IC50).

In the case of `N#Cc1cnc2cnc(NCc3cccc(Br)c3)cc2c1Nc1ccc(F)c(Cl)c1` [Example 121, 6-[(3-bromobenzyl)amino]-4-[(3-chloro-4-fluorophenyl)amino]-1,7-naphthyridine-3-carbonitrile], the half-maximal inhibitory concentration (IC50) came to 430 nM. This IC50 is about 1.9-fold higher than that of the compound before.

The compound `N#Cc1cnc2cnc(NCCN3CCCCC3)cc2c1Nc1ccc(F)c(Cl)c1` [Example 122, 4-[(3-chloro-4-fluorophenyl)amino]-6-[(2-piperidin-1-ylethyl)amino]-1,7-naphthyridine-3-carbonitrile] displayed an IC50 of 2500 nM. This IC50 is about 5.8-fold higher than that of the compound before.

Regarding `N#Cc1cnc2cnc(NCc3ccccn3)cc2c1Nc1ccc(F)c(Cl)c1` [Example 123, 4-(3-chloro-4-fluorophenylamino)-6-(pyridin-2-ylmethylamino)-1,7-naphthyridine-3-carbonitrile], the half-maximal inhibitory concentration (IC50) is 130 nM.

Turning to `COc1ccccc1CNc1cc2c(Nc3ccc(F)c(Cl)c3)c(C#N)cnc2cn1` [Example 124, 4-[(3-chloro-4-fluorophenyl)amino]-6-[(2-methoxybenzyl)amino]-1,7-naphthyridine-3-carbonitrile], the IC50 is 370 nM.

Compound `CS(=O)(=O)c1ccc(CNc2cc3c(Nc4ccc(F)c(Cl)c4)c(C#N)cnc3cn2)cc1` [Example 125, 4-[(3-chloro-4-fluorophenyl)amino]-6-{[4-(methylsulfonyl)benzyl]amino}-1,7-naphthyridine-3-carbonitrile] registered a half-maximal inhibitory concentration (IC50) of 23 nM.

As to `N#Cc1cnc2cnc(NCc3c(Cl)cccc3Cl)cc2c1Nc1ccc(F)c(Cl)c1` [Example 126, 4-[(3-chloro-4-fluorophenyl)amino]-6-[(2,6-dichlorobenzyl)amino]-1,7-naphthyridine-3-carbonitrile], inhibition was half-maximal at 24600 nM (IC50).

On to `N#Cc1cnc2cnc(NCc3c(Cl)cccc3Cl)cc2c1NCc1c(Cl)cccc1Cl` [Example 127, 4,6-bis[(2,6-dichlorobenzyl)amino]-1,7-naphthyridine-3-carbonitrile], for which the half-inhibitory concentration (IC50) was above 40000 nM.

`N#Cc1cnc2cnc(F)cc2c1Nc1ccc(OC(F)(F)F)cc1` [Example 128, 6-fluoro-4-{[4-(trifluoromethoxy)phenyl]amino}-1,7-naphthyridine-3-carbonitrile] yielded an IC50 above 40000 nM.

In turn, `CCN1CCC[C@H]1CNc1cc2c(NC3CCCC3)c(C#N)cnc2cn1` [Example 129, 4-(cyclopentylamino)-6-({[(2S)-1-ethylpyrrolidin-2-yl]methyl}amino)-1,7-naphthyridine-3-carbonitrile] registered an IC50 of 2800 nM.

Consider `CC(C)(C)Nc1c(C#N)cnc2cnc(NCc3ccc(S(C)(=O)=O)cc3)cc12` [Example 130, 4-(tert-butylamino)-6-{[4-(methylsulfonyl)benzyl]amino}-1,7-naphthyridine-3-carbonitrile], for which the IC50 came to 4600 nM.

Regarding `C[C@@H](Nc1cc2c(N[C@H](C)c3ccccc3)c(C#N)cnc2cn1)c1ccccc1` [Example 131, 4,6-bis{[(1R)-1-phenylethyl]amino}-1,7-naphthyridine-3-carbonitrile], half-maximal inhibition (IC50) was put at 560 nM.

In turn, `CS(=O)(=O)c1ccc(CNc2cc3c(NCc4ccc(S(C)(=O)=O)cc4)c(C#N)cnc3cn2)cc1` [Example 132, 4,6-bis{[4-(methylsulfonyl)benzyl]amino}-1,7-naphthyridine-3-carbonitrile] came in with a half-inhibitory concentration (IC50) of 16900 nM.

For `C[C@@H](Nc1cc2c(NC3CCCCCC3)c(C#N)cnc2cn1)c1ccccc1` [Example 133, 4-(cycloheptylamino)-6-{[(1R)-1-phenylethyl]amino}-1,7-naphthyridine-3-carbonitrile], the half-inhibitory concentration (IC50) was 920 nM. This IC50 is about 18-fold lower than that of the compound before.

Take `CCC(C)(C)Nc1c(C#N)cnc2cnc(NCc3cccnc3)cc12` [Example 135, 4-[(1,1-dimethylpropyl)amino]-6-[(pyridin-3-ylmethyl)amino]-1,7-naphthyridine-3-carbonitrile]: the midpoint of inhibition, the IC50, lay at 100 nM.

`CN(c1c(C#N)cnc2cnc(F)cc12)C1CCCCCC1` [Example 136, 4-[cycloheptyl(methyl)amino]-6-fluoro-1,7-naphthyridine-3-carbonitrile] gave an IC50 of 360 nM.

In turn, `C[C@@H](Nc1cc2c(N(C)C3CCCCCC3)c(C#N)cnc2cn1)c1ccccc1` [Example 137, 4-[cycloheptyl(methyl)amino]-6-{[(1R)-1-phenylethyl]amino}-1,7-naphthyridine-3-carbonitrile] had an IC50 above 40000 nM.

Compound `C#CC(C)(C)Nc1c(C#N)cnc2cnc(NCc3cccnc3)cc12` [Example 138, 4-[(1,1-dimethylprop-2-ynyl)amino]-6-[(pyridin-3-ylmethyl)amino]-1,7-3-carbonitrile] had a half-inhibitory concentration (IC50) above 40000 nM.

As for `Cn1nc(C(C)(C)C)cc1Nc1c(C#N)cnc2ccc(N)cc12` [Example 139, 6-amino-4-[(3-tert-butyl-1-methyl-1H-pyrazol-5-yl)amino]quinoline-3-carbonitrile], inhibition was half-maximal at 270 nM (IC50).

In turn, `N#Cc1cnc2cnc(Nc3c[nH]cn3)cc2c1Nc1ccc(F)c(Cl)c1` [Example 140, 4-[(3-chloro-4-fluorophenyl)amino]-6-{[4(5)imidazolyl]amino}-1,7-naphthyridine-3-carbonitrile] had an IC50 of 79 nM.

Consider `CCC(C)(C)Nc1c(C#N)cnc2cnc(F)cc12` [Example 141, 4-[(1,1-dimethylpropyl)amino]-6-fluoro-1,7-naphthyridine-3-carbonitrile], for which the IC50 is above 40000 nM.

As for `C#CC1(Nc2c(C#N)cnc3cnc(F)cc23)CCCCC1` [Example 142, 4-[(1-ethynylcyclohexyl)amino]-6-fluoro-1,7-naphthyridine-3-carbonitrile], the IC50 was 28000 nM.

Compound `CC(C)(C)Nc1cc2c(Nc3ccc(F)c(Cl)c3)c(C#N)cnc2cn1` [Example 143, 6-(tert-butylamino)-4-[(3-chloro-4-fluorophenyl)amino]-1,7-naphthyridine-3-carbonitrile] displayed a 50% inhibitory concentration (IC50) above 40000 nM.

Compound `N#Cc1cnc2cnc(NC3CCCCCC3)cc2c1Nc1ccc(F)c(Cl)c1` [Example 144, 4-[(3-chloro-4-fluorophenyl)amino]-6-(cycloheptylamino)-1,7-naphthyridine-3-carbonitrile] had a half-inhibitory concentration (IC50) of 5200 nM.

Turning to `N#Cc1cnc2cnc(NCc3cccnc3)cc2c1NCc1cccnc1` [Example 145, 4,6-bis(pyridin-3-ylmethylamino)-1,7-naphthyridine-3-carbonitrile], the IC50 is above 40000 nM.

In a further test the target is Tpl2 (Homo sapiens, UniProt P41279).
Tpl2, sequence (P41279 whole entry): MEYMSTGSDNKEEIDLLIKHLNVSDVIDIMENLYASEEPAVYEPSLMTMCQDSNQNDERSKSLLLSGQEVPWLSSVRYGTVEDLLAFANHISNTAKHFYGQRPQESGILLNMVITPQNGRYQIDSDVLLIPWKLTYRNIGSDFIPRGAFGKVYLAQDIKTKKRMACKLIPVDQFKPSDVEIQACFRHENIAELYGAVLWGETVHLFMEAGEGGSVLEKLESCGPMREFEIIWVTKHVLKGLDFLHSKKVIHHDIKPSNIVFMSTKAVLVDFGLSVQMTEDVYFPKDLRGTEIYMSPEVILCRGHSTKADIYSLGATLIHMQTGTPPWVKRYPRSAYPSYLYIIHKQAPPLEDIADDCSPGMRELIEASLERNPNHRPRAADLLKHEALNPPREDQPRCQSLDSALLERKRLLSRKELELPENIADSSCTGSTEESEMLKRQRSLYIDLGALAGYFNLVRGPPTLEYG
Assay: not given
Conditions: background statement; cited from earlier work.
As for `CN[C@@H]1C[C@H]2O[C@@](C)([C@@H]1OC)n1c3ccccc3c3c4c(c5c6ccccc6n2c5c31)C(=O)NC4` [staurosporine], the “inhibition of Tpl2” value is “not inhibited”.
